Assay results as given in ChEMBL document CHEMBL4507319 (2021).

Experiments:
Conditions in all cases: Compound concentration 1000.0 nM
[1] = target: Membrane-associated tyrosine- and threonine-specific cdc2-inhibitory kinase (Homo sapiens) (UniProt Q99640)
[2] = target: T1, Serine/threonine-protein kinase MAK (Homo sapiens) (UniProt P20794)
T1 sequence (whole entry): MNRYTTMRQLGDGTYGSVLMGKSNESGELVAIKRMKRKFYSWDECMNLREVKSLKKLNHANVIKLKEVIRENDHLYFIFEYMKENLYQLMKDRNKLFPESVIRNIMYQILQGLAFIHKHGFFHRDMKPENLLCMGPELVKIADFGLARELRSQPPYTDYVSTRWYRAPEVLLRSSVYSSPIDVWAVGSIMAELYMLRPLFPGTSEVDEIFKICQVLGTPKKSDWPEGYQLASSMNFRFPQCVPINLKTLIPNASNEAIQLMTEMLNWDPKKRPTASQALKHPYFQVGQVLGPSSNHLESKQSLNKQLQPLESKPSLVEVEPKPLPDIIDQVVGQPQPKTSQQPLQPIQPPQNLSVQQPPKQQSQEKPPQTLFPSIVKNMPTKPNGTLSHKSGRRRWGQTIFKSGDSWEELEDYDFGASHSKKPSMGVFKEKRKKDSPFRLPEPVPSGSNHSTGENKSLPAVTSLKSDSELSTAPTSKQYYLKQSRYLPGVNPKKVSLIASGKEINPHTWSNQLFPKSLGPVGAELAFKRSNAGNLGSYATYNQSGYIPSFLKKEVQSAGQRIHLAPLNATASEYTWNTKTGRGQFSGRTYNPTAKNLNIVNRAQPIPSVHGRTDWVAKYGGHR

[3] = target: Serine/threonine-protein kinase 38-like (Homo sapiens) (UniProt Q9Y2H1)
Serine/threonine-protein kinase 38-like (Homo sapiens), sequence (Q9Y2H1 2-464 limits assumed): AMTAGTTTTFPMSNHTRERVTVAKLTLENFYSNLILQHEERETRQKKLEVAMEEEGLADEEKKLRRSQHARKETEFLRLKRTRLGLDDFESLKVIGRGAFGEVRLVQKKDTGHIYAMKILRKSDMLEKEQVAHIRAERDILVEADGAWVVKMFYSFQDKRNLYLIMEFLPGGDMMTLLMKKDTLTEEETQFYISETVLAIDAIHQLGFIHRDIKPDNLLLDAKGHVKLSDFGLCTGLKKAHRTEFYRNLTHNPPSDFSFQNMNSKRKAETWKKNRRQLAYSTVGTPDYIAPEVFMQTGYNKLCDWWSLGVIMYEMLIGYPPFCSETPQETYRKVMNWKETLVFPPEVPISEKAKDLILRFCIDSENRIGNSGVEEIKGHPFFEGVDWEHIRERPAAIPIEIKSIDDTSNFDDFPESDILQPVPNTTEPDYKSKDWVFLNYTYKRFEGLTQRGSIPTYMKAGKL

[4] = target: Cyclin-dependent kinase 11B (Homo sapiens) (UniProt P21127)
Cyclin-dependent kinase 11B (Homo sapiens), sequence (P21127 whole entry): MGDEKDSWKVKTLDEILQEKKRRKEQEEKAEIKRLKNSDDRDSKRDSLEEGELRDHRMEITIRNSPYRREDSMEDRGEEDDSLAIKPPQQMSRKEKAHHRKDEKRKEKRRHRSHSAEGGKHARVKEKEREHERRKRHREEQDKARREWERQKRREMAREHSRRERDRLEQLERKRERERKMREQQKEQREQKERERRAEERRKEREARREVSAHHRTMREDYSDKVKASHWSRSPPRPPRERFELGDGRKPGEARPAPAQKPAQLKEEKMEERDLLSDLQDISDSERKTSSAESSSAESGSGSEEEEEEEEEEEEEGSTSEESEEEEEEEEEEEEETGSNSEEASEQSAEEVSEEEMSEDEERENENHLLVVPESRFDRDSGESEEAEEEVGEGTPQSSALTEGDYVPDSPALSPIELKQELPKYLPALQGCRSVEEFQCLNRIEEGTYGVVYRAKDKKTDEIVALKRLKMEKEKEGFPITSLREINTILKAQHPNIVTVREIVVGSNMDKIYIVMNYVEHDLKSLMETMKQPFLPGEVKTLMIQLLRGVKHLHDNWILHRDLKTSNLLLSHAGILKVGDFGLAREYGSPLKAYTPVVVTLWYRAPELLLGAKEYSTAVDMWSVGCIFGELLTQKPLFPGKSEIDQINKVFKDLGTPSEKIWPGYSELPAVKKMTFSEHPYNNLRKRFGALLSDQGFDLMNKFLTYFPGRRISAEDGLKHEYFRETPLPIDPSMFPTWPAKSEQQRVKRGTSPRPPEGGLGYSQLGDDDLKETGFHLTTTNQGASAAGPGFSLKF

[5] = tested on: Receptor-type tyrosine-protein kinase FLT3 (Homo sapiens), P36888 [UNDEFINED MUTATION]
Receptor-type tyrosine-protein kinase FLT3 (Homo sapiens), P36888 [UNDEFINED MUTATION], sequence (P36888 whole entry, looked up, change not shown): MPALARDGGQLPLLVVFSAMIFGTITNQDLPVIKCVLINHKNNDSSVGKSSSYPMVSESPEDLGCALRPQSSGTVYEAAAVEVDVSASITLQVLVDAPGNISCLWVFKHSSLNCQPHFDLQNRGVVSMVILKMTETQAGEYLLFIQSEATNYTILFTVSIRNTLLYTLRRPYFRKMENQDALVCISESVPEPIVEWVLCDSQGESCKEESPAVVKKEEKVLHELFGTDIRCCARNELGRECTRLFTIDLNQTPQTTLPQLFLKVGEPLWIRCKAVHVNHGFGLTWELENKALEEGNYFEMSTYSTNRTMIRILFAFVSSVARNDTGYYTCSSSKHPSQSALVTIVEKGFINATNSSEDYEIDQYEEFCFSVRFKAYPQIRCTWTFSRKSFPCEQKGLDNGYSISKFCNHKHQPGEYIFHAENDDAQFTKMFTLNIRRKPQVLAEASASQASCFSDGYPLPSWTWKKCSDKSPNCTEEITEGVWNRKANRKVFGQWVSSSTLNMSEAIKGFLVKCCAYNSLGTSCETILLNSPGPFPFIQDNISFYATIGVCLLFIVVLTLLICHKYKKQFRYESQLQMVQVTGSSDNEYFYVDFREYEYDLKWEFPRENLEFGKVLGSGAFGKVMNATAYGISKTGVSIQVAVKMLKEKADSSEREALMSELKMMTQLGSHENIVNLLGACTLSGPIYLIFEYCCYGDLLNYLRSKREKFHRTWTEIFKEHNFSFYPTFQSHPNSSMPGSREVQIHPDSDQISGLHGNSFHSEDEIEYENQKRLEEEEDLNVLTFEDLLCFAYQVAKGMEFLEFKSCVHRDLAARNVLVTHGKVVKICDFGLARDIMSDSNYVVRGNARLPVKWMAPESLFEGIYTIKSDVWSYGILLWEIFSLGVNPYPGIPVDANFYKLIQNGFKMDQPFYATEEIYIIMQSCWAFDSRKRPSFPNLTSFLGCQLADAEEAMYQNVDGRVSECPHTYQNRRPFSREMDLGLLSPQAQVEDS

[6] = target: Serine/threonine-protein kinase Nek4 (Homo sapiens) (UniProt P51957)
Serine/threonine-protein kinase Nek4 (Homo sapiens), sequence (P51957 whole entry, looked up): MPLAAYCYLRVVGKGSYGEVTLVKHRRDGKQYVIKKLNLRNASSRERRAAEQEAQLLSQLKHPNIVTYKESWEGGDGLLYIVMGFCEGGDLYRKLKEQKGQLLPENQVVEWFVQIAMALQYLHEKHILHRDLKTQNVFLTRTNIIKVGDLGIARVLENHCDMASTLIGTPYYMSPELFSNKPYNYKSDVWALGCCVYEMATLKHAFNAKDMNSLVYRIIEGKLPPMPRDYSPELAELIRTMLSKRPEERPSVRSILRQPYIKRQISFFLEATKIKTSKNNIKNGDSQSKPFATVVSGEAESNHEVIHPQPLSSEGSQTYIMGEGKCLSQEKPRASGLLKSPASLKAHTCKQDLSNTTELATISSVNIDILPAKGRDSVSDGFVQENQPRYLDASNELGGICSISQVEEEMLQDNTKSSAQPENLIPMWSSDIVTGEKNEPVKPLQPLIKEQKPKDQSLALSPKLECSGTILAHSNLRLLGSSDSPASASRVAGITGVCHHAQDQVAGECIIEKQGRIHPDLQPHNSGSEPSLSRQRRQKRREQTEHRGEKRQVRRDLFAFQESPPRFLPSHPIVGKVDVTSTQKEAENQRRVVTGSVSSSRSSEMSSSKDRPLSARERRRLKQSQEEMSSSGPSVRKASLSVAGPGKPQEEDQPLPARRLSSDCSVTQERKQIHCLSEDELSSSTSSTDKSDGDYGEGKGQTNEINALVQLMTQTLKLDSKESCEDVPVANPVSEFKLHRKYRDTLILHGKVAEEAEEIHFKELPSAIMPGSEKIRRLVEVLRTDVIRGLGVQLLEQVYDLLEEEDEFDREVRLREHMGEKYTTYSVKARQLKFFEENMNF

[7] = target: T2, G protein-coupled receptor kinase 3 (Homo sapiens) (UniProt P35626)
T2 sequence (whole entry): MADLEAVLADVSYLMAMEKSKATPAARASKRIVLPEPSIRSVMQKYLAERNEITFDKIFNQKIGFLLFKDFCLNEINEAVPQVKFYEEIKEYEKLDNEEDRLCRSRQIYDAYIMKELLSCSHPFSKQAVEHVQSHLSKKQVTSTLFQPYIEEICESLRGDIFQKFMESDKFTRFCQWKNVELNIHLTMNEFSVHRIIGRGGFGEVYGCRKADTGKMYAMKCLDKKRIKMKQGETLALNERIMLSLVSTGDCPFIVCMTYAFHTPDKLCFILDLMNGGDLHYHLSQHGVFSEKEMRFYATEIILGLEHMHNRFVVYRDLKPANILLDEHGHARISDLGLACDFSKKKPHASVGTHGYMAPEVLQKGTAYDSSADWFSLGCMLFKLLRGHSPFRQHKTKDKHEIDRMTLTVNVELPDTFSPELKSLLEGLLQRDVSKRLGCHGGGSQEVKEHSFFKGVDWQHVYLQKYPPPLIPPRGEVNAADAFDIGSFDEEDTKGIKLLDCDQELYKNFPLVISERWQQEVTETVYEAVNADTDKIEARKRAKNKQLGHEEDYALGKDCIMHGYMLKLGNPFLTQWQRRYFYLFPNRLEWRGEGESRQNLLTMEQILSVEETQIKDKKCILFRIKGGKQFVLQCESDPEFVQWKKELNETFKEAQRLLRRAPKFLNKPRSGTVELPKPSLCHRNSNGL

[8] = target: T3, Serine/threonine-protein kinase Sgk1 (Homo sapiens) (UniProt O00141)
T3 sequence (whole entry): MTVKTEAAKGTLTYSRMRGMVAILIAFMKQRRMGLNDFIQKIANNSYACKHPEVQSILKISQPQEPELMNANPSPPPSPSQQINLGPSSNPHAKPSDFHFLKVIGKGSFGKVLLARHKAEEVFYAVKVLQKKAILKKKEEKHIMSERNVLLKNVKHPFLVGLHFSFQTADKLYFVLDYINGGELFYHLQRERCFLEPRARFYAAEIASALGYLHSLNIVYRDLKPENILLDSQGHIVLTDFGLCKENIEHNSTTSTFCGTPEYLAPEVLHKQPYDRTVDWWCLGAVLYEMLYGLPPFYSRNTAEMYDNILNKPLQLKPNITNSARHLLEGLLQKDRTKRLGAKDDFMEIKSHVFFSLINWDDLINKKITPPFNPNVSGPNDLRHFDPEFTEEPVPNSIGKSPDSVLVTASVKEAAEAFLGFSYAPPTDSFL

Membrane-associated tyrosine- and threonine-specific cdc2-inhibitory kinase (Homo sapiens), sequence (Q99640 whole entry): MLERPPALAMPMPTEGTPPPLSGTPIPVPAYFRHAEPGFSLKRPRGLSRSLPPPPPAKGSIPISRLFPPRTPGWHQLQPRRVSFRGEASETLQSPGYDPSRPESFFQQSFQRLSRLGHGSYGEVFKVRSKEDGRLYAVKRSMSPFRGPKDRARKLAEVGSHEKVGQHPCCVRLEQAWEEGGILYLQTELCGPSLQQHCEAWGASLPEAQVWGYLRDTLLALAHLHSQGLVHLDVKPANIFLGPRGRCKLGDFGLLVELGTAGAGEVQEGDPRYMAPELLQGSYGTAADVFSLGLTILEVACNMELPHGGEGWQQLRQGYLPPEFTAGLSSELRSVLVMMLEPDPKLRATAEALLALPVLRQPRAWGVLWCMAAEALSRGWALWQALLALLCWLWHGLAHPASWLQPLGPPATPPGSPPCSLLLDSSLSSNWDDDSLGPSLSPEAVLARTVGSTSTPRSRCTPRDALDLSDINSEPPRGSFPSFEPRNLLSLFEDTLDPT

Compound: CCc1ccccc1C(=O)Nc1n[nH]c2c(C)c(F)c(C3C(C#N)=C(C)N(C)C(C)=C3C#N)cc12 [BAY-3827]
- residual activity [1]: 100%
- residual activity [2]: 100%
- residual activity [3]: 82%
- residual activity [4]: 100%
- residual activity [5]: 11%
- residual activity [6]: 100%
- residual activity [7]: 100%
- residual activity [8]: 100%

Compound: CC1=C(C#N)C(c2ccc3c(c2)c(NC(=O)c2ccccc2C)nn3C)C(C#N)=C(C)N1 [BAY-974]
- residual activity [1]: 99%
- residual activity [2]: 100%
- residual activity [3]: 98%
- residual activity [4]: 100%
- residual activity [5]: 96%
- residual activity [6]: 100%
- residual activity [7]: 93%
- residual activity [8]: 89%
